Source: PubChem BioAssay AID330 (DTP/NCI, 2004)
Values joined by “and” are separate entries in the source; they are usually repeats but may differ in a detail not shown here. Identical values can stand only once. Inconclusive results and toxic doses are left out.

Tested on: P388 leukemia ip, CD2F1 mice, survival T/C
Experiment: NCI In Vivo Anticancer Drug Screen. Data for tumor model P388 Leukemia (intraperitoneal) in CD2F1 (CDF1) mice
Settings: endpoint: median survival time, higher = longer survival
Method in brief: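 Mice carrying the transplanted tumor received test compound or vehicle. Survival was recorded in each group, and the value is the treated-group measurement divided by that of the vehicle-treated control group.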

[1] = dose: 12.5 mg/kg/injection, schedule: Q01DX009 (ip), vehicle: saline with Tween-80
[2] = dose: 25.0 mg/kg/injection, schedule: Q01DX009 (ip), vehicle: saline with Tween-80
[3] = dose: 50.0 mg/kg/injection, schedule: Q01DX009 (ip), vehicle: saline with Tween-80
[4] = dose: 100.0 mg/kg/injection, schedule: Q01DX009 (ip), vehicle: saline with Tween-80
[5] = dose: 200.0 mg/kg/injection, schedule: Q01DX009 (ip), vehicle: saline with Tween-80
[6] = dose: 12.5 mg/kg/injection, schedule: Q01DX009 (ip), vehicle: distilled water + Tween-80
[7] = dose: 25.0 mg/kg/injection, schedule: Q01DX009 (ip), vehicle: distilled water + Tween-80
[8] = dose: 50.0 mg/kg/injection, schedule: Q01DX009 (ip), vehicle: distilled water + Tween-80
[9] = dose: 100.0 mg/kg/injection, schedule: Q04DX003 (ip), vehicle: saline with Tween-80
[10] = dose: 200.0 mg/kg/injection, schedule: Q04DX003 (ip), vehicle: saline with Tween-80
[11] = dose: 50.0 mg/kg/injection, schedule: Q01DX005 (ip), vehicle: saline with Tween-80
[12] = dose: 100.0 mg/kg/injection, schedule: Q01DX005 (ip), vehicle: saline with Tween-80
[13] = dose: 200.0 mg/kg/injection, schedule: Q01DX005 (ip), vehicle: saline with Tween-80
[14] = dose: 50.0 mg/kg/injection, schedule: Q04DX003 (ip), vehicle: saline with Tween-80

With `O=C(/C=C/c1ccccc1)O[C@@H]1CC2CC1C[C@H]2c1cnc[nH]1` (stereo not given in full) the T/C (dose: 25.0 mg/kg/injection, schedule: Q04DX002 (ip), vehicle: saline with Tween-80) was 100 % of control, the T/C (dose: 50.0 mg/kg/injection, schedule: Q04DX002 (ip), vehicle: saline with Tween-80) was 101 % of control and the T/C (dose: 100.0 mg/kg/injection, schedule: Q04DX002 (ip), vehicle: saline with Tween-80) was 92 % of control.
For `CC1=NCc2nn(C)nc2N1`, the T/C (dose: 50.0 mg/kg/injection, schedule: Q01DX009 (ip), vehicle: saline) was 100 % of control, the T/C (dose: 100.0 mg/kg/injection, schedule: Q01DX009 (ip), vehicle: saline) was 100 % of control and the T/C (dose: 200.0 mg/kg/injection, schedule: Q01DX009 (ip), vehicle: saline) was 97 % of control.
`O=C(c1ccccc1)N(C(=O)c1ccccc1)c1ccccn1` was tested, and the T/C [1] was 103 % of control, the T/C [2] was 106 % of control and the T/C [3] was 112 % of control. The T/C [4] was 87 % of control, the T/C [5] was 86 % of control and the T/C (dose: 400.0 mg/kg/injection, schedule: Q01DX009 (ip), vehicle: saline with Tween-80) was 93 % of control.
With `COc1cc2c(cc1OC)-c1c3c(cc4c1[C@@H](C2)N(C)CC4)OCO3` the T/C [6] was 107 % of control, the T/C [1] was 106 % of control and the T/C [7] was 107 % of control. For the same molecule, the T/C [2] was 100 % of control, the T/C [8] was 116 % of control and the T/C [3] was 102 % of control.
For `CNC(=O)OCc1c(COC(=O)NC)c(-c2ccc(C(C)(C)C)cc2)n(C)c1C`, the T/C (dose: 6.25 mg/kg/injection, schedule: Q01DX009 (ip), vehicle: distilled water + Tween-80) was 150 % of control and 152 % of control, the T/C [6] was 155 % of control and the T/C [7] was 150 % of control and 158 % of control. For the same molecule, the T/C [8] was 97 % of control.
With `CC(C)(C)SC(=O)C1CC1` the T/C [9] was 111 % of control and the T/C [10] was 102 % of control.
`CC(C)CCN(CCC(C)C)CC(O)c1cc2c(c3ccccc13)CCCC2` (stereo not given) was tested, and the T/C (dose: 12.5 mg/kg/injection, schedule: Q01DX005 (ip), vehicle: saline with Tween-80) was 96 % of control, the T/C (dose: 25.0 mg/kg/injection, schedule: Q01DX005 (ip), vehicle: saline with Tween-80) was 93 % of control and the T/C [11] was 103 % of control and 93 % of control. The T/C [12] was 113 % of control and the T/C [13] was 108 % of control.
In the case of `CC1(C)CC(=O)C(=N/O)/C(=N\NC(N)=S)C1`, the T/C [11] is reported as 102 % of control, the T/C [12] is reported as 103 % of control and the T/C [13] is reported as 110 % of control.
With `CC(C)(C)N=C(CCN1CCCCC1)Nc1cccc(Cl)c1` the T/C [3] was 110 % of control, the T/C [4] was 106 % of control and the T/C [5] was 98 % of control.
With `CCOC(=O)c1cc(=O)c2c(OC)ccc(OC)c2[nH]1` the T/C [11] was 90 % of control, the T/C [12] was 98 % of control and the T/C [13] was 97 % of control.
For `O=C1Oc2ccccc2CC1C(=O)c1ccc(Cl)cc1` (stereo not given), the T/C [11] was 106 % of control, the T/C [12] was 103 % of control and the T/C [13] was 100 % of control.
For `CCC(O)C1Sc2ccccc2N1C` (stereo not given), the T/C (dose: 60.0 mg/kg/injection, schedule: Q01DX005 (ip), vehicle: saline with Tween-80) was 104 % of control, the T/C (dose: 120.0 mg/kg/injection, schedule: Q01DX005 (ip), vehicle: saline with Tween-80) was 101 % of control and the T/C (dose: 240.0 mg/kg/injection, schedule: Q01DX005 (ip), vehicle: saline with Tween-80) was 106 % of control.
With `CCOC(=O)c1ccnc2ccc3ccccc3c12` the T/C (dose: 50.0 mg/kg/injection, schedule: Q01DX005 (ip), vehicle: Klucel (hydroxypropylcellulose) (HPC)) was 105 % of control, the T/C (dose: 100.0 mg/kg/injection, schedule: Q01DX005 (ip), vehicle: Klucel (hydroxypropylcellulose) (HPC)) was 102 % of control and the T/C (dose: 200.0 mg/kg/injection, schedule: Q01DX005 (ip), vehicle: Klucel (hydroxypropylcellulose) (HPC)) was 96 % of control.
`CC(=O)OC1CC2CCC1(C)C2(C)C` (stereo not given) was tested, and the T/C [3] was 109 % of control, the T/C [14] was 105 % of control and the T/C [4] was 104 % of control. The T/C [9] was 100 % of control and the T/C [10] was 100 % of control.
For `N#C/C(=C\C=C\c1ccccc1)C(N)=O`, the T/C [14] was 104 % of control, the T/C [9] was 104 % of control and the T/C [10] was 109 % of control.
